The subject of one test is U251 glioma cells. Kind of test: MTT cell viability, U251. It is filed as cell-based. As to conditions: Homo sapiens, U-251, 72 h, read-out: IC50 U251 (GBM). Here is the method: (§1) U87-MG, U251-MG and NCI-H1299 cells were purchased from ATCC, while MKN45 was obtained from the Leibniz Institute DSMZ-German Collection of Microorganisms and Cell Cultures and the RWP1 cell line was kindly provided by Dr. Francisco Real. Cells were cultured in DMEM or RPMI (Gibco, Waltham, MA, USA) supplemented with 10% FBS, 100 U/mL penicillin and streptomycin and 2 mM L-Glutamine. Patient-derived glioma neural stem cells (GNS166 and GNS179) were kindly provided by Dr. Steve Pollard. These cells were cultured in adhesion plates treated with laminin A in DMEM/F12 media (Gibco) supplemented with N2 (Gibco), B27 (Gibco), D-(+)-Glucose solution 45% (Sigma-Aldrich, Burlington, MA, USA), basic Fibroblast Growth Factor (Gibco) and epidermal growth factor (Sigma-Aldrich). Normal human astrocytes (NHAs) were purchased from ScienCell and cultured using an astrocyte medium kit (ScienCell, San Diego, CA, USA) supplemented with FBS and Astrocyte Growth Supplement (AGS). All cells were maintained at standard conditions of 37 °C, 95% humidity, 21% O2 and 5% CO2, and cultures were regularly tested for Mycoplasma.
(§2) Cells were seeded in 96-well plates at a density of 1.5 × 10^3 or 5 × 10^3 cells/well (conventional cell lines or GNS and NHAs, respectively) and incubated overnight. […] Then, absorbance at 570 nm was measured. […]

Test [1] deals with MKN45 gastric cancer cells. Nature of the test: MTT cell viability, MKN45. It is filed as cell-based. Conditions: Homo sapiens, MKN-45, 72 h. Here is the method: as §1, §2
Test [2] deals with NHA primary human astrocytes. Kind of test: MTT cell viability, NHA. It is filed as cell-based. As to conditions: Astrocyte, 72 h, non-tumor cells. Here is the method:
as §1, §2

For the next test, the system named is HDAC6. Kind of test: Western blot of acetylated α-tubulin (HDAC6 target). Format: cell-based, human. Conditions: GNS166 and U87 cells. Here is the method: Sodium dodecyl sulfate–polyacrylamide gel electrophoresis was performed. Primary antibodies against HDAC1 (Abcam, Cambridge, UK) and HDAC6 (Cell Signaling, Dancers, MA, USA) and their main targets, acetylated H3 (Cell Signaling) and acetylated α-tubulin (Abcam), were used; acetylated lysine (Cell Signaling) and β-actin (Sigma-Aldrich) were used as endogenous controls. Secondary antibodies conjugated to horseradish peroxidase were anti-rabbit or anti-mouse (Cell Signaling). Proteins were detected using the iBright imaging system and NOVEX ECL Chemi Substrate or SuperSignal West Femto Maximum Sensitivity Substrate (ThermoFisher, Waltham, MA, USA).
Background: Immunoblotting shows a protein as a band on a membrane.

In test [3] the test system is GNS166 patient-derived glioma stem cells. Nature of the test: MTT cell viability, GNS166. As to conditions: Homo sapiens, 72 h, read-out: IC50 GNS166 (GBM). It is filed as cell-based. Here is the method:
as §1, §2

The test system of test [4] is RWP1 pancreatic cancer cells. Nature of the test: MTT cell viability, RWP1. As to conditions: Homo sapiens, 72 h. Format: cell-based. Here is the method:
as §1, §2

Test [5] concerns GNS166, GNS179, U87 and U251 cells. Nature of the test: Immunofluorescence of Ki67, p-H3 and cleaved caspase-3. Format: cell-based, human. As to conditions: 1, 3 and 5 μM, 48 h, all glioma cell types. Here is the method: For immunofluorescence assays, cells were seeded at a density of 2 × 10^4 cells/well in 8-well immunofluorescence chambers (LabTek Thermo, Waltham, MA, USA) and incubated overnight. Then, cells were treated for 48 h and fixed with 4% PFA. Primary antibodies against phospho-histone H3 (p-H3) (Abcam), cleaved caspase-3 (Casp3) (R&D Systems, Minneapolis, MN, USA) and Ki67 (Abcam) and secondary antibodies Alexa Fluor anti-mouse and anti-rabbit (Invitrogen, Carlsbad, CA, USA) were used. Nuclei were stained with DAPI (Sigma-Aldrich). Pictures were taken with an Axio Observer 7 epifluorescence microscope, and Qupath version 0.6.0 was used for quantifications. Percentages of Ki67-, p-H3- and Casp3-positive cells were calculated, taking into account the number of nuclei.

The next test has as its target T1, recombinant hMAO-A (Homo sapiens, UniProt P21397).
T1 sequence (P21397 1-527): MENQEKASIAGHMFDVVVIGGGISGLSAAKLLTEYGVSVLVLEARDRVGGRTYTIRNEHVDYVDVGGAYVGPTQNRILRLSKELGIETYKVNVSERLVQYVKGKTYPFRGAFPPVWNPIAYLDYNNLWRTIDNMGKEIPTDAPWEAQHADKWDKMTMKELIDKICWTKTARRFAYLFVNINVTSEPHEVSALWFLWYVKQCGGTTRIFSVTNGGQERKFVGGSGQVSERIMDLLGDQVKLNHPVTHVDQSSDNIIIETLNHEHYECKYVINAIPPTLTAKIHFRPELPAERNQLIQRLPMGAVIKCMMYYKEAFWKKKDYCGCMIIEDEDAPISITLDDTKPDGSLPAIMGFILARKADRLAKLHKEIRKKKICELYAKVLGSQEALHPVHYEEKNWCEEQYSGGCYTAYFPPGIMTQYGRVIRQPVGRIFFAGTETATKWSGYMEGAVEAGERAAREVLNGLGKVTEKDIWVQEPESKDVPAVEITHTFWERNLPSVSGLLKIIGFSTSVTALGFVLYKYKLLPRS
Kind of test: MAO-A inhibition assay. Format: biochemical. As to conditions: increasing concentrations of inhibitor. Here is the method: For MAO inhibition studies, the enzyme solution (0.5 U/mL recombinant hMAO-A or 1.5 U/mL recombinant hMAO-B) was incubated with an inhibitor solution containing 10 µM of the compounds for 30 min at 37 °C. Next, horseradish peroxidase (200 U/mL), Ampliflu Red (20 mM) and tyramine hydrochloride (100 mM) (Sigma-Aldrich) were added, and absorbance was measured at 570 nm every 5 min for 30 min. The percentage of inhibition was calculated from the absorbance values.

SMILES strings stand for the structures.

In the case of `CCCNNC(=O)c1ccc(S(=O)(=O)n2ccc3cc(OCCCN4CCCCC4)ccc32)cc1` [FRB44], the concentration for half-maximal inhibition (IC50) (usually the midpoint of a concentration-inhibition curve) in the test on U251 glioma cells was 3.1 µM; in test [1] it was 4.1 µM; in test [2], 41.4 µM; in test [3] it was 15 µM; in test [4] it was 0.7 µM. For the same compound, the “levels of acetyl-α-tubulin” value in the test with HDAC6 is “increased”. The “proliferative markers (Ki67- and p-H3-positive cells)” value in test [5] is reported as “clear reductions”.

Turning to `C#CCN1CCN(CCCOc2ccc3c(ccn3S(=O)(=O)c3ccc(C(=O)NNCCC)cc3)c2)CC1` [FRB56], the 50% inhibitory concentration (IC50) turned out to be 12 µM in the test on U251 glioma cells, 1.68 µM at recombinant hMAO-A, 26.6 µM in test [2] and 13.7 µM in test [3]. Further, the “levels of acetyl-α-tubulin” value in the test with HDAC6 is reported as “increased”. Moreover, the “proliferative markers (Ki67- and p-H3-positive cells)” value in test [5] is “clear reductions”.

The record behind these values is PMC12736535, “Generation and Characterization of Novel Contilisant+Tubastatin a Multitarget Small Molecules Against Glioblastoma” (Pharmaceutics, 2025).
